From the supplement of paper PMC4932681

Key:
BT-474 Tam1 [1] = experiment: drug sensitivity score (DSS) (DSS (dimensionless)); higher = more sensitive; extreme values may be limits of the assay; conditions: 4-OH-tamoxifen in medium 1 µM; 72 h
Summary of the method: (§1)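 Breast cancer cell lines and their resistant derivatives were seeded into 384-well plates holding FO2Baq library drugs at five concentrations spanning a 10 000-fold range. Resistant lines were in medium with 1 μM of the selecting drug. Cells were incubated 72 h at 37 °C, and CellTiter-Glo viability was read on a PHERAstar and normalised to vehicle-only and positive controls. Drug sensitivity score, relative IC50 (curve midpoint) and top-dose inhibition came from logistic dose–response fits (Breeze pipeline).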

BT-474 Tam2 [2] = experiment: as above; conditions: 4-OH-tamoxifen in medium 1 µM; 72 h
Summary of the method: as §1

BT-474 [3] = experiment: as above; conditions: 72 h
Summary of the method: as §1

MCF-7 Tam1 [4] = experiment: as above; conditions: 4-OH-tamoxifen in medium 1 µM; 72 h
Summary of the method: as §1

MCF-7 [5] = experiment: as above; conditions: 72 h
Summary of the method: as §1

T-47D Tam1 [6] = experiment: as above; conditions: 4-OH-tamoxifen in medium 1 µM; 72 h
Summary of the method: as §1

T-47D Tam2 [7] = experiment: as above; conditions: 4-OH-tamoxifen in medium 1 µM; 72 h
Summary of the method: as §1

T-47D [8] = experiment: as above; conditions: 72 h
Summary of the method: as §1

ZR-75-1 Tam1 [9] = experiment: as above; conditions: 4-OH-tamoxifen in medium 1 µM; 72 h
Summary of the method: as §1

ZR-75-1 Tam2 [10] = experiment: as above; conditions: 4-OH-tamoxifen in medium 1 µM; 72 h
Summary of the method: as §1

ZR-75-1 [11] = experiment: as above; conditions: 72 h
Summary of the method: as §1

BT-474 Tam1 [12] = experiment: relative IC50 (midpoint of fitted logistic curve, plateau may be below 50% inhibition; CellTiter-Glo viability); higher = less potent; conditions: 4-OH-tamoxifen in medium 1 µM; 72 h
Summary of the method: as §1

BT-474 Tam2 [13] = experiment: as above; conditions: 4-OH-tamoxifen in medium 1 µM; 72 h
Summary of the method: as §1

BT-474 [14] = experiment: as above; conditions: 72 h
Summary of the method: as §1

MCF-7 Tam1 [15] = experiment: as above; conditions: 4-OH-tamoxifen in medium 1 µM; 72 h
Summary of the method: as §1

MCF-7 [16] = experiment: as above; conditions: 72 h
Summary of the method: as §1

T-47D Tam1 [17] = experiment: as above; conditions: 4-OH-tamoxifen in medium 1 µM; 72 h
Summary of the method: as §1

T-47D Tam2 [18] = experiment: as above; conditions: 4-OH-tamoxifen in medium 1 µM; 72 h
Summary of the method: as §1

T-47D [19] = experiment: as above; conditions: 72 h
Summary of the method: as §1

ZR-75-1 Tam1 [20] = experiment: as above; conditions: 4-OH-tamoxifen in medium 1 µM; 72 h
Summary of the method: as §1

ZR-75-1 Tam2 [21] = experiment: as above; conditions: 4-OH-tamoxifen in medium 1 µM; 72 h
Summary of the method: as §1

ZR-75-1 [22] = experiment: as above; conditions: 72 h
Summary of the method: as §1

| relative IC50 (BT-474 Tam1 [12]) [nM] | relative IC50 (BT-474 Tam2 [13]) [nM] | relative IC50 (BT-474 [14]; 4-OH-tamoxifen in medium 0 µM) [nM] | relative IC50 (BT-474 [14]; 4-OH-tamoxifen in medium 1 µM) [nM] | relative IC50 (MCF-7 Tam1 [15]) [nM] | relative IC50 (MCF-7 [16]; 4-OH-tamoxifen in medium 0 µM) [nM] | relative IC50 (MCF-7 [16]; 4-OH-tamoxifen in medium 1 µM) [nM] | relative IC50 (T-47D Tam1 [17]) [nM] | relative IC50 (T-47D Tam2 [18]) [nM] | relative IC50 (T-47D [19]; 4-OH-tamoxifen in medium 0 µM) [nM] | relative IC50 (T-47D [19]; 4-OH-tamoxifen in medium 1 µM) [nM] | Compound | drug sensitivity score (BT-474 Tam1 [1]) | drug sensitivity score (BT-474 Tam2 [2]) | drug sensitivity score (BT-474 [3]; 4-OH-tamoxifen in medium 0 µM) | drug sensitivity score (BT-474 [3]; 4-OH-tamoxifen in medium 1 µM) | drug sensitivity score (MCF-7 Tam1 [4]) | drug sensitivity score (MCF-7 [5]; 4-OH-tamoxifen in medium 0 µM) | drug sensitivity score (MCF-7 [5]; 4-OH-tamoxifen in medium 1 µM) | drug sensitivity score (T-47D Tam1 [6]) | drug sensitivity score (T-47D Tam2 [7]) | drug sensitivity score (T-47D [8]; 4-OH-tamoxifen in medium 0 µM) | drug sensitivity score (T-47D [8]; 4-OH-tamoxifen in medium 1 µM) | drug sensitivity score (ZR-75-1 Tam1 [9]) | drug sensitivity score (ZR-75-1 Tam2 [10]) | drug sensitivity score (ZR-75-1 [11]; 4-OH-tamoxifen in medium 0 µM) | drug sensitivity score (ZR-75-1 [11]; 4-OH-tamoxifen in medium 1 µM) | relative IC50 (ZR-75-1 Tam1 [20]) [nM] | relative IC50 (ZR-75-1 Tam2 [21]) [nM] | relative IC50 (ZR-75-1 [22]; 4-OH-tamoxifen in medium 0 µM) [nM] | relative IC50 (ZR-75-1 [22]; 4-OH-tamoxifen in medium 1 µM) [nM] |
| --- | --- | --- | --- | --- | --- | --- | --- | --- | --- | --- | --- | --- | --- | --- | --- | --- | --- | --- | --- | --- | --- | --- | --- | --- | --- | --- | --- | --- | --- | --- |
| 18.9 | 35.2 | 22.7 | 27.5 | 24.1 | 11.4 | 13.5 | 8.17 | 8.76 | 7.79 | 8.51 | Cc1c2oc3c(C)ccc(C(=O)N[C@@H]4C(=O)N[C@H](C(C)C)C(=O)N5CCC[C@H]5C(=O)N(C)CC(=O)N(C)[C@@H](C(C)C)C(=O)O[C@@H]4C)c3nc-2c(C(=O)N[C@@H]2C(=O)N[C@H](C(C)C)C(=O)N3CCC[C@H]3C(=O)N(C)CC(=O)N(C)[C@@H](C(C)C)C(=O)O[C@@H]2C)c(N)c1=O [Dactinomycin] | 20.1 | 16.1 | 11.2 | 17.9 | 16.1 | 20.2 | 20 | 18.2 | 16 | 16.8 | 12 | 19.8 | 23.2 | 20.5 | 17.4 | 9.56 | 8.33 | 4.5 | 9.03 |
| 398 | 393 | 385 | 375 | 341 | 208 | 189 | 133 | 282 | 134 | 350 | COc1cccc2c1C(=O)c1c(O)c3c(c(O)c1C2=O)C[C@@](O)(C(C)=O)C[C@@H]3O[C@H]1C[C@H](N)[C@H](O)[C@H](C)O1 [Daunorubicin] | 3.18 | 1.15 | 2.33 | 4.51 | 1.34 | 6.15 | 7.3 | 6.95 | 4.19 | 7.41 | 3.69 | 5.81 | 6.6 | 6.15 | 5.38 | 164 | 150 | 138 | 124 |
| > 10000 | > 10000 | > 10000 | > 10000 | > 10000 |  | > 10000 | > 10000 | > 10000 | > 10000 | > 10000 | Nc1ncn([C@H]2C[C@H](O)[C@@H](CO)O2)c(=O)n1 [Decitabine (Dacogen)] | 0 | 0 | 0 | 0 | 0 | 1.25 | 0 | 0 | 0 | 0 | 0 | 0 | 0 | 0 | 0 | > 10000 | > 10000 | > 10000 | > 10000 |
| > 10000 | > 10000 | > 10000 | > 10000 | > 10000 | > 10000 | > 10000 | > 10000 | > 10000 | > 10000 | > 10000 | CN1CCN(c2ccc3nc(-c4c(N)c5c(F)cccc5[nH]c4=O)[nH]c3c2)CC1 [Dovitinib (CHIR-258)] | 0 | 0 | 0 | 0 | 0 | 0 | 0 | 0 | 0 | 0 | 0 | 0 | 0 | 0 | 0 | > 10000 | > 10000 | > 10000 | > 10000 |
| 154 | 303 | 137 | 170 | 226 | 123 | 146 | 117 | 212 | 199 | 390 | Cc1c(CN2CCN(C(=O)[C@H](C)O)CC2)sc2c(N3CCOCC3)nc(-c3cnc(N)nc3)nc12 [GDC-0980] | 18.3 | 15.1 | 13.5 | 18.4 | 9.79 | 17.4 | 15.9 | 15.3 | 12.4 | 14.7 | 12.1 | 13.5 | 14.9 | 16.5 | 11.8 | 178 | 160 | 86.5 | 145 |

| Compound | relative IC50 (BT-474 Tam1 [12]) [nM] | relative IC50 (BT-474 Tam2 [13]) [nM] | relative IC50 (BT-474 [14]; 4-OH-tamoxifen in medium 0 µM) [nM] | relative IC50 (BT-474 [14]; 4-OH-tamoxifen in medium 1 µM) [nM] | relative IC50 (MCF-7 Tam1 [15]) [nM] | relative IC50 (MCF-7 [16]; 4-OH-tamoxifen in medium 0 µM) [nM] | relative IC50 (MCF-7 [16]; 4-OH-tamoxifen in medium 1 µM) [nM] | relative IC50 (T-47D Tam1 [17]) [nM] | relative IC50 (T-47D Tam2 [18]) [nM] | relative IC50 (T-47D [19]; 4-OH-tamoxifen in medium 0 µM) [nM] | relative IC50 (T-47D [19]; 4-OH-tamoxifen in medium 1 µM) [nM] | drug sensitivity score (BT-474 Tam1 [1]) | drug sensitivity score (BT-474 Tam2 [2]) | drug sensitivity score (BT-474 [3]; 4-OH-tamoxifen in medium 0 µM) | drug sensitivity score (BT-474 [3]; 4-OH-tamoxifen in medium 1 µM) | drug sensitivity score (MCF-7 Tam1 [4]) | drug sensitivity score (MCF-7 [5]; 4-OH-tamoxifen in medium 0 µM) | drug sensitivity score (MCF-7 [5]; 4-OH-tamoxifen in medium 1 µM) | drug sensitivity score (T-47D Tam1 [6]) | drug sensitivity score (T-47D Tam2 [7]) | drug sensitivity score (T-47D [8]; 4-OH-tamoxifen in medium 0 µM) | drug sensitivity score (T-47D [8]; 4-OH-tamoxifen in medium 1 µM) | drug sensitivity score (ZR-75-1 Tam1 [9]) | drug sensitivity score (ZR-75-1 Tam2 [10]) | drug sensitivity score (ZR-75-1 [11]; 4-OH-tamoxifen in medium 0 µM) | drug sensitivity score (ZR-75-1 [11]; 4-OH-tamoxifen in medium 1 µM) | relative IC50 (ZR-75-1 Tam1 [20]) [nM] | relative IC50 (ZR-75-1 Tam2 [21]) [nM] | relative IC50 (ZR-75-1 [22]; 4-OH-tamoxifen in medium 0 µM) [nM] | relative IC50 (ZR-75-1 [22]; 4-OH-tamoxifen in medium 1 µM) [nM] |
| --- | --- | --- | --- | --- | --- | --- | --- | --- | --- | --- | --- | --- | --- | --- | --- | --- | --- | --- | --- | --- | --- | --- | --- | --- | --- | --- | --- | --- | --- | --- |
| Cn1cc(C2=C(c3cn(C4CCN(Cc5ccccn5)CC4)c4ccccc34)C(=O)NC2=O)c2ccccc21 [Enzastaurin] | > 10000 | > 10000 | > 10000 | > 10000 | > 10000 | > 10000 | > 10000 | > 10000 | > 10000 | > 10000 | > 10000 | 0 | 0 | 0 | 0 | 0 | 0 | 0 | 0 | 0 | 0 | 0 | 0 | 0 | 0 | 0 | > 10000 | > 10000 | > 10000 | > 10000 |
| C[C@]12CC[C@@H]3c4ccc(OC(=O)N(CCCl)CCCl)cc4CC[C@H]3[C@@H]1CC[C@@H]2O [Estramustine] | > 990000 | > 990000 | > 990000 | > 990000 | > 990000 | > 990000 | > 990000 | > 990000 | > 990000 | > 990000 | > 990000 | 0 | 0 | 0 | 0 | 0 | 0 | 0 | 0 | 0 | 0 | 0 | 0 | 0 | 0 | 0 | > 990000 | > 990000 | > 990000 | > 990000 |
